Earlier results in US9034798B2, “Capture compounds, collections thereof and methods for analyzing the proteome and complex compositions” (CAPROTEC BIOANALYTICS GMBH, priority 2003, dated 2015).

Conditions: for drug-induced hepatotoxicity: clinical studies; for heart failure: six male patients with poor heart and kidney function; for deaths: reported before withdrawal from the market

SMILES | drug-induced hepatotoxicity | heart failure | deaths [deaths]
CCc1ccc(CCOc2ccc(CC3SC(=O)NC3=O)cc2)nc1 (stereo not drawn) [Actos, Pioglitazone] | no evidence of drug-induced hepatotoxicity | caused heart failure | –
CN(CCOc1ccc(CC2SC(=O)NC2=O)cc1)c1ccccn1 (stereo not drawn) [Avandia, Rosiglitazone] | no evidence of drug-induced hepatotoxicity | caused heart failure | –
COCc1c(C(C)C)nc(C(C)C)c(/C=C/[C@@H](O)C[C@@H](O)CC(=O)O)c1-c1ccc(F)cc1 [Baycol, cerivastatin sodium] | – | – | 31
Cc1c(C)c2c(c(C)c1O)CCC(C)(COc1ccc(CC3SC(=O)NC3=O)cc1)O2 (stereo not drawn) [Rezulin, Troglitazone] | – | – | 398
